Measured values reported in patent publication US12064433B2 (ARCUS BIOSCIENCES, INC., priority 2018, dated 2024).

Experiments:
Human A2BR = biological target: T1, Human A2BR (Homo sapiens, UniProt P29275); assay: Human 2B Adenosine Receptor CHO-K1 cAMP antagonist functional assay; assay type: cell-based; conditions: cAMP antagonist functional assay vs NECA, CHO-K1 cells stably expressing Human A2BR; read-out: A2B (Potency: A2BR KB)
T1 sequence (P29275 1-332): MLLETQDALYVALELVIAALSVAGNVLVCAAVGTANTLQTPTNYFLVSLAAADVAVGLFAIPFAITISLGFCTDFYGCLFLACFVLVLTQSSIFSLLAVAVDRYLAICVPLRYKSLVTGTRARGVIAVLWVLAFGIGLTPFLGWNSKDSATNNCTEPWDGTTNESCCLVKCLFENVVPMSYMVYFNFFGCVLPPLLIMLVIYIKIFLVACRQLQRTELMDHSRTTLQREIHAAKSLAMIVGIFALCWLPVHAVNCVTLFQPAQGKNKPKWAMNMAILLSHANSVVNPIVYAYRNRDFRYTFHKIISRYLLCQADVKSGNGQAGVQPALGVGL
Protocol: Measurement of the Adenosine Receptor Activity of Compounds Using a Human 2B Adenosine Receptor CHO-K1 cAMP Functional Assay
CHO-K1 cells stably expressing Human Adenosine 2B Receptor (A2BR: Cat. No. M000329, GenScript) were purchased from GenScript Inc., Piscataway, NJ 08854, USA.
The cAMP antagonist functional assay (Perkin Elmer) was performed on CHO-K1 cells stably expressing Human A2BR. 1×10^6 cells were seeded in T75 flasks and cultured at 37° C. and 5% CO2 overnight. 2,000-4,000 cells/well of stably-expressed A2bR CHO-K1 cells were then seeded to a white 384-well Opti plate followed by compound 1 incubation at various concentrations (ranging from 1 μM to 0 μM) at 37° C. for 1 hour.
(§1) A 1:2 serial dilution of NECA (Sigma Aldrich) from 1 μM to 0 μM was added to the cell stimulation mixture and incubated for 30 min at 37° C. After 30 min incubation, 5 μL of Ulight-anti-cAMP (1:150 dilution with conjugate and lysis buffer provided by Perkin Elmer) and 5 μL of Eu-cAMP tracer (1:50 dilution with conjugate and lysis buffer provided by Perkin Elmer) was added the cells and incubated for an hour. FRET signal was detected with an Envision multilabel plate reader (Perkin Elmer) loaded with 615 nm […] filters and 665 nm emission filters.
(§2) Data analysis was performed using on GraphPad Prism (version 7.02) to determine the KB of the test compounds.

Human A2AR = biological target: T2, Human A2AR (Homo sapiens, UniProt P29274); assay: Human 2A Adenosine Receptor (A2aR) CHO-TREx cAMP antagonist functional assay; assay type: cell-based; conditions: cAMP antagonist functional assay vs NECA, CHO-T-REx cells induced to express Human A2AR; read-out: A2A (Potency: A2AR KB)
T2 construct: expressed in transfected cells; host or cells: CHO-T-REx cells, tetracycline-inducible expression
Protocol: Measurement of the Adenosine Receptor Activity of Compounds Using a Human 2A Adenosine Receptor (A2aR) CHO-TREx cAMP Functional Assay
The cAMP antagonist functional assay (Perkin Elmer) was performed on CHO-T-REx cells induced to express Human A2AR. Cells were seeded to a white 384-well Opti plate at a density of 1,000 to 2,500 cells per well followed by incubation with various concentrations of compound (ranging from 1 μM to 0 μM) at 37° C. for 1 hour.
as §1, §2

T2 sequence (P29274 whole entry): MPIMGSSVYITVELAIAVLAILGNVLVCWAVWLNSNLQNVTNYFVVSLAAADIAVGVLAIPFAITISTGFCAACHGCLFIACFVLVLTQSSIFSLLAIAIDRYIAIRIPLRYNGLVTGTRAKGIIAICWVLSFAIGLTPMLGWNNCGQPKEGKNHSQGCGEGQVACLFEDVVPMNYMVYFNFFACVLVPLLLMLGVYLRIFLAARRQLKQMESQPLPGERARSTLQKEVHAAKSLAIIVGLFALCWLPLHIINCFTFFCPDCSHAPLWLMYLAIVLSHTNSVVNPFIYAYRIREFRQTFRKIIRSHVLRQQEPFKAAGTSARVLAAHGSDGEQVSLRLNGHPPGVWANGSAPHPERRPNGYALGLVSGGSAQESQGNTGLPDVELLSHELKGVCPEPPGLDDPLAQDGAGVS

| Kb (Human A2BR) | Kb (Human A2AR) | Compound |
| --- | --- | --- |
| < 100 nM | < 100 nM | 1-[(S)-Tetrahydro-2H-pyran-3-yl]-3-{[4-(2-amino-8-methoxy-4-quinazolinyl)-1H-1,2,3-triazol-1-yl]methyl}-1H-pyridin-2-one [Example 32] |
| < 100 nM | < 100 nM | COc1cccc2c(-c3cn(Cc4cccn(CC(C)(C)O)c4=O)nn3)nc(N)nc12 [Example 3] |
| < 100 nM | < 100 nM | Cc1cccc2c(-c3cn(Cc4cccn(C(C)C)c4=O)nn3)nc(N)nc12 [Example 6] |
| 100 to 1000 nM | < 100 nM | COc1cccc2c(-c3cn(Cc4cccn(C(C)C)c4=O)nn3)cc(N)nc12 [Example 8] |
| < 100 nM | < 100 nM | COc1cccc2c(-c3cn(Cc4cccn(CC5CCOCC5)c4=O)nn3)nc(N)nc12 [Example 21] |
| < 100 nM | < 100 nM | COC[C@@H](C)n1cccc(Cn2cc(-c3nc(N)nc4c(OC)cccc34)nn2)c1=O [Example 24] |
| 100 to 1000 nM | < 100 nM | COC[C@H](C)n1cccc(Cn2cc(-c3nc(N)nc4c(OC)cccc34)nn2)c1=O [Example 25] |
| < 100 nM | < 100 nM | COc1cccc2c(-c3cn(Cc4cccn([C@@H](C)C(C)(C)O)c4=O)nn3)nc(N)nc12 [Example 26, 1-[(S)-2-Hydroxy-1,2-dimethylpropyl]-3-{[4-(2-amino-8-methoxy-4-quinazolinyl)-1H-1,2,3-triazol-1-yl]methyl}-1H-pyridin-2-one] |
| 100 to 1000 nM | < 100 nM | COc1cccc2c(-c3cn(Cc4cccn([C@H](C)C(C)(C)O)c4=O)nn3)nc(N)nc12 [Example 27, 1-[(R)-2-Hydroxy-1,2-dimethylpropyl]-3-{[4-(2-amino-8-methoxy-4-quinazolinyl)-1H-1,2,3-triazol-1-yl]methyl}-1H-pyridin-2-one] |
| < 100 nM | < 100 nM | COc1cccc2c(-c3cn(Cc4cccn([C@H](C)C5CCOCC5)c4=O)nn3)nc(N)nc12 [Example 28] |
| < 100 nM | < 100 nM | COc1cccc2c(-c3cn(Cc4cccn([C@@H](C)C5CCOCC5)c4=O)nn3)nc(N)nc12 [Example 29] |
| 100 to 1000 nM | < 100 nM | CCn1cccc(Cn2cc(-c3nc(N)nc4c(OC)cccc34)cn2)c1=O [Example 40, 3-{[4-(2-Amino-8-methoxy-4-quinazolinyl)-1H-pyrazol-1-yl]methyl}-1-ethyl-1H-pyridin-2-one] |

| Compound | Kb (Human A2BR) | Kb (Human A2AR) |
| --- | --- | --- |
| 3-{[4-(2-Amino-8-methoxy-4-quinazolinyl)-1H-1,2,3-triazol-1-yl]methyl}-1-(cyclopropylmethyl)-1H-pyridin-2-one [Example 4] | 100 to 1000 nM | < 100 nM |
